Experiment [1] has as its system DRG neurons. Kind of experiment: Calcium imaging of cultured DRG neurons. Particulars: for percentage of DRG neurons responding, WT vs MrgprA1GFP/GFP mice: comparison of WT and MrgprA1GFP/GFP mice. The class given is cell-based, mouse. As to the method: Calcium Imaging of Cultured Dorsal Root Ganglia (DRG) Neurons
DRG neurons were plated on poly-D-lysine/laminin-coated coverslips and cultured for 24 hours. […] Briefly, neurons were loaded with Fura 2-acetomethoxy ester (Molecular Probes) for 30 min in dark at room temperature. After washing, neurons were imaged at 340/380 nm excitation to detect intracellular free calcium. All tests were performed with an experimenter blinded to the genotype.

Experiment [2] deals with small-diameter primary sensory neurons (DRG neurons). Nature of the experiment: Whole-cell recordings of cultured DRG neurons (evoked action potentials). The class given is cell-based, mouse. The procedure: Whole-Cell Voltage-Clamp Recordings of Cultured DRG Neurons
Dissociated DRG neurons were plated on coverslips and cultured for 2-7 hours. For clamp recording, coverslips were perfused with extracellular solution (ECS) consisting of (in mM): NaCl 140, KCl 4, CaCl2 2, MgCl2 2, HEPES 10, Glucose 5, with pH adjusted to 7.38 using NaOH. Neurons with cell body diameters between 22 and 25 μm were recorded in the whole-cell voltage-clamp configuration with electrodes (pipette solution in mM: KCl 135, MgATP 3, Na2ATP 0.5, CaCl2 1.1, EGTA 2, Glucose 5, pH adjusted to 7.38) using an Axon 700B amplifier and the pCLAMP 9.2 software package (Axon Instruments). Electrodes were pulled (Narishige, Model pp-830) from borosilicate glass (WPI, Inc), and after filling they had resistances of 2-4 MΩ. Neurons were perfused with […] FMRFamide for 30 seconds and washed for 3 minutes. Action potentials were elicited with prolonged injections (500 ms) of a depolarizing current (200 pA) before and after FMRFamide treatment. All experiments were performed at room temperature with an experimenter blinded to the genotype.

The mark [3] stands for this setting: adult mutant (Mrgpr-clusterΔ−/−) DRG neurons.

In the case of FMRFamide, the “responses in DRG neurons” value in experiment [1] (setting [3]) is on record as “no responses”; in experiment [1] (newborn Mrgpr-clusterΔ−/− mice), “few or no responses”. Besides, the “percentage of DRG neurons responding, WT vs MrgprA1GFP/GFP mice” value in experiment [1] is on record as “did not differ significantly”. Besides, the firing rate result in experiment [2] (Mrgpr-deficient neurons) was “did not show an increase in firing rate”. Also, in experiment [2] (WT DRG neurons, current-clamp), the “number of action potentials evoked by injection of depolarizing current” value is “significant increase”. Moreover, the “cells with sensitizing effect / cells recorded” value is 10 of 23 in experiment [2] (WT adult DRG neurons, cell body diameter 22 to 25 μm) and 1 of 20 in experiment [2] (neurons from Mrgpr-clusterΔ−/− mice). For the same substance, the “average number of action potentials after treatment” value in experiment [2] (WT neurons, n=10, 500 ms, 200 pA depolarizing current, before treatment 3.6±1.6) came to 7.7±1.9.

On to NPFF, for which the “responses in DRG neurons” value is recorded as “no responses” in experiment [1] (setting [3]) and “few or no responses” in experiment [1] (newborn Mrgpr-clusterΔ−/− mice). For the same substance, the “percentage of DRG neurons responding, WT vs MrgprA1GFP/GFP mice” value in experiment [1] was “did not differ significantly”.

Source of the values: US20110150769A1, “IDENTIFICATION AND USE OF COMPOUNDS FOR TREATING PERSISTENT PAIN” (priority 2009, published 2011).
